The values below come from patent US4536505A, “Certain N-(pyridyl) indoles” (Ciba-Geigy Corporation, priority 1983, dated 1985).

Assay [1] addresses T1, prostaglandin cyclooxygenase (Ovis aries, UniProt P05979).
T1 construct: Lyophilized sheep seminal vesicle microsomes are utilized as the prostaglandin-synthesizing enzyme preparation; from tissue; host or cells: lyophilized sheep seminal vesicle microsomes
T1 sequence (P05979 25-600): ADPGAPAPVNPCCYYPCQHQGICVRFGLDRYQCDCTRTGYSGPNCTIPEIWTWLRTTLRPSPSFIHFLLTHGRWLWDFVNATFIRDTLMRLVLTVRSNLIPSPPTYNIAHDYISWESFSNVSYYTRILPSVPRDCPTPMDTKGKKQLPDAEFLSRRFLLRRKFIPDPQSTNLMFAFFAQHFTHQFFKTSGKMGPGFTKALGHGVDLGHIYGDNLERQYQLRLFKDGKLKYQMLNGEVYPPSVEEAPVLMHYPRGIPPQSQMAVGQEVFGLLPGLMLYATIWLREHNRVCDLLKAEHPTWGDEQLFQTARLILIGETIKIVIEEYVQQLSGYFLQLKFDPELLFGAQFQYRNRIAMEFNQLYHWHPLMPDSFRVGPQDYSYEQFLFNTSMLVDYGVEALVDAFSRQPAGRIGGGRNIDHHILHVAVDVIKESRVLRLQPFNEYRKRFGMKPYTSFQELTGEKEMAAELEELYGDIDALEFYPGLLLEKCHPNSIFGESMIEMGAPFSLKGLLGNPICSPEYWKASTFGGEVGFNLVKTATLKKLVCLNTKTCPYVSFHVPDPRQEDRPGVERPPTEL
In words: in-vitro effect on prostaglandin cyclooxygenase. Format: biochemical, sheep (seminal vesicle microsomes). The following applies: 50% reduction in the amount of PGE2 synthesized; read-out: IC50 for cyclooxygenase inhibition. The procedure:
The in-vitro effect on prostaglandin cyclooxygenase is measured by a modification of the method of Takeguchi et al. described in Biochemistry 10, 2372 (1971); the testing procedure is as follows:
Lyophilized sheep seminal vesicle microsomes are utilized as the prostaglandin-synthesizing enzyme preparation. The conversion of ^14 C-arachidonic acid to PGE2 is measured. Test compounds (dissolved in buffer, or if necessary, in a small amount of ethanol) are added to the incubation mixture. The prostaglandins are extracted and separated by thin-layer chromatography; the plates are scanned, the radioactive zones corresponding to PGE2 are transferred to liquid scintillation vials and counted for radioactivity. IC50 values for inhibition are determined graphically as the concentration of test compound causing a 50% reduction in the amount of PGE2 synthesized.

A short description of a further assay: bleeding time in the rat. The settings on record: about 1.0 mg/kg p.o. The assay is classed as in vivo. An excerpt: Indicative of the utility in thromboembolism, compounds of this invention also prolong bleeding time in the rat.
A further assay has as its system prostacyclin. As to the kind of experiment: in vivo plasma level of prostacyclin (6-keto-PGF1 α) in rats after ionophore A23187. The following applies: rat, oral dose of 0.04 mg/kg or lower. The procedure:
(§1) The inhibition of the synthesis and the reduction of plasma levels of thromboxane is determined in vivo on administration to rats in the following manner (as adapted from the procedures described by Tai et al. in Anal. Biochem. 87:343, 1978 and by Salmon in Prostaglandins 15:383, 1978):
(§2) Rats are dosed with vehicle or test drug and injected intravenously with ionophore A23187 (0.5 mg/kg) two hours later. Blood is collected for analysis 2 minutes after the ionophore injection. A single aliquot of each plasma sample is assayed for thromboxane B2 and another aliquot for 6-keto-PGF1 α, the stable metabolites of thromboxane A2 and prostacyclin (PGI2) respectively, by radioimmunoassay.

Another assay concerns the target T2, thromboxane synthetase (Homo sapiens, UniProt P24557).
T2 construct: crude microsomal preparation of thromboxane synthetase from lysed human platelets; from tissue; host or cells: lysed human platelets, crude microsomal preparation
T2 sequence (P24557 1-533): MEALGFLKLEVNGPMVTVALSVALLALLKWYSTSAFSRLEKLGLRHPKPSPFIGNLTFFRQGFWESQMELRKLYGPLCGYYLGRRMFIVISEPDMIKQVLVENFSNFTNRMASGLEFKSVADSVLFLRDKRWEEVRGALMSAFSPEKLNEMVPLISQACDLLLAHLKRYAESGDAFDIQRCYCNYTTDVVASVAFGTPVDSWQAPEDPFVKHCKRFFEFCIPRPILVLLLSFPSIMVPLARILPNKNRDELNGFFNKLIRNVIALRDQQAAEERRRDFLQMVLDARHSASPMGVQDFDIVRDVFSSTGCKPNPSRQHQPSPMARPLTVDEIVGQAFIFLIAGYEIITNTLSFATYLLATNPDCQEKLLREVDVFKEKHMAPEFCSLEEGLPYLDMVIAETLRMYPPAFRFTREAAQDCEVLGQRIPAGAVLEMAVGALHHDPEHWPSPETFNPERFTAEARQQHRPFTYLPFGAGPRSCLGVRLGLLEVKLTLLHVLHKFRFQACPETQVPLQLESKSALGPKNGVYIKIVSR
In words: in vitro inhibition of the thromboxane synthetase enzyme. Format: biochemical, human (lysed human platelets). The settings on record: 30 minutes incubation; ratio T×B2/PGF2 α+β reduced to 50% of control. The procedure:
Res. Comm. 74, 1432 (1977); the testing procedure is as follows: ^14 C-Arachidonic acid is incubated with an enzyme consisting of solubilized and partially purified prostaglandin cyclo-oxygenase from sheep seminal vesicles and a crude microsomal preparation of thromboxane synthetase from lysed human platelets. The test compound (dissolved in buffer, or if necessary, in a small amount of ethanol) is added to the incubation medium. At the end of the incubation period (30 minutes), Prostaglandin E2 (PGE2) is reduced to a mixture of Prostaglandin F2 α and F2 β (PGF2 α+β) by addition of sodium borohydride. The radioactive products and excess substrate are extracted into ethyl acetate; the extract is evaporated to dryness; the residue is dissolved in acetone, spotted on thin-layer plates and chromatographed in the solvent system toluene:acetone:glacial acetic acid (100 volumes:100 volumes:3 volumes). The radioactive zones are located; those corresponding to Thromboxane B2 (T×B2) and PGF2 α+β are transferred to liquid scintillation vials and counted. The ratio of counts for T×B2 /PGF2 α+β is calculated for each concentration of test compound and IC50 values are determined graphically as the concentration of test compound at which the ratio of T×B2 /PGF2 α+β is reduced to 50% of the control value.

The next assay relates to thromboxane B2. As to the kind of experiment: in vivo reduction of plasma levels of thromboxane (thromboxane B2) in rats after ionophore A23187. The settings on record: rat, oral dose of 0.04 mg/kg or lower. The procedure:
as §1, §2

The target in another assay is T3, lipoxygenase (Cavia porcellus, UniProt A0A286X958).
T3 construct: Guinea pig peritoneal neutrophils; endogenous in cells; host or cells: guinea pig peritoneal neutrophils (elicited with sodium caseinate)
T3 sequence (A0A286X958 1-674): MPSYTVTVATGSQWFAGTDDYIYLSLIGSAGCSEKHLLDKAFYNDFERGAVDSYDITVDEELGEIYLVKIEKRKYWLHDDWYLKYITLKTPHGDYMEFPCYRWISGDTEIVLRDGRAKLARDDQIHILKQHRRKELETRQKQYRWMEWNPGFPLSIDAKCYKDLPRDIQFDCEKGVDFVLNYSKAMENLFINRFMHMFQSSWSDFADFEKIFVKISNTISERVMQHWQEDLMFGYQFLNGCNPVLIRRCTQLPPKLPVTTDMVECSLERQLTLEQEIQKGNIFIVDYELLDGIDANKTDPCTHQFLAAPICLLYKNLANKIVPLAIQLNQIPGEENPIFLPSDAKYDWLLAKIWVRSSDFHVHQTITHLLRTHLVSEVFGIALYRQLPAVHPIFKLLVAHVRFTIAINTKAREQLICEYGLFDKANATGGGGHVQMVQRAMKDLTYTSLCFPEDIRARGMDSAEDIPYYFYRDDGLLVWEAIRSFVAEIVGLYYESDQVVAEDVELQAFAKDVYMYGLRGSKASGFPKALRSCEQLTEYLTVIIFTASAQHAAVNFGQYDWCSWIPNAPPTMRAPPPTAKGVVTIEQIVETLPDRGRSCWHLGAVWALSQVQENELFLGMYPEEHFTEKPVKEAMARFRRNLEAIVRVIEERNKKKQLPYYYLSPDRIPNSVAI
As to the kind of experiment: lipoxygenase inhibition in guinea pig peritoneal neutrophils. The assay is classed as cell-based. The following applies: 14C-arachidonic acid (4 μM), A-23187 (2 μM), 37° C.; LTB4 and 5-HETE. The procedure: Guinea pig peritoneal neutrophils (elicited by an i.p. injection of sodium caseinate 17 hours prior to harvesting) are preincubated with indomethacin (1 μM) and test drugs for 5 minutes at 37° C. ^14 C-arachidonic acid (4 μM) and calcium ionophore A-23187 (2 μM) are added and the samples are incubated for another 5 minutes at 37° C. The reaction is terminated by the addition of 1N HCl and the products are extracted with ethyl acetate and separated by thin-layer chromatography; the plates are scanned and the radioactive zones corresponding to LTB4 and 5-HETE are scraped off, transferred to liquid scintillation vials and counted for radioactivity.

Each structure is given as a SMILES string. Where only a bound is given, the exact number is not on record here.

As for `O=C(O)CCCCc1cn(-c2cccnc2)c2ccccc12` [3-(4-carboxybutyl)-N-(3-pyridyl)indole], the results for the IC50 (in assay [1]; on thromboxane synthetase) were over 1000 µM and about 0.0011 µM, respectively. Also, in the assay “bleeding time in the rat”, the “prolongation of bleeding time” value is reported as “prolongs bleeding time”. For the same compound, the “increase in the plasma level of prostacyclin” value in the assay on prostacyclin was “approximately 5 fold”. In the assay on thromboxane B2, the “decrease of plasma concentration of thromboxane B2” value is reported as “over 50%”.

Consider `O=C(O)CCCCc1cn(-c2cccnc2)c2ccc(Cl)cc12` [3-(4-carboxybutyl)-5-chloro-N-(3-pyridyl)indole], for which the values for the IC50 at thromboxane synthetase and on lipoxygenase were about 0.0026 µM and about 30 µM, respectively.

As for `O=C(O)CCCCCc1cn(-c2cccnc2)c2ccccc12` [3-(5-carboxypentyl)-N-(3-pyridyl)indole], the IC50 (usually the concentration at which inhibition is half-maximal) on thromboxane synthetase was about 0.004 µM.
